What is called LC50 is the concentration that kills 50% of the test population. Low readings indicate greater toxicity, high ones lower toxicity.

The text below walks through data of ChEMBL document CHEMBL6182872, “Synthesis of Benzo[h]quinoline derivatives and evaluation of their insecticidal activity against Culex pipiens L. larvae” (Eur J Med Chem, 2025).

Values after ≈ are worked out from the molar mass of the structure shown.

The assay concerns Culex pipiens. Kind of assay: Toxicity in Culex pipiens at third larval instar measured after 24 hrs. Type of assay: organism-based.
Turning to `Cc1ccc(C2=C/C(=C\c3cc4ccc5ccccc5c4nc3Cl)C(=O)N2NC(=O)c2ccccc2)cc1`, the LC50 is 4.9 µg/mL (≈ 9.5 µM).
For `Cc1ccc(C2=C/C(=C\c3cc4ccc5ccccc5c4nc3Cl)C(=O)N2NC(=O)CCl)cc1`, the LC50 turned out to be 23.9 µg/mL (≈ 48.9 µM).
Compound `CC(=O)NN1C(=O)/C(=C/c2cc3ccc4ccccc4c3nc2Cl)C=C1c1ccc(C)cc1` registered an LC50 of 97.5 µg/mL (≈ 215 µM).
With `Cc1ccc(C(=O)C/C(=C\c2cc3ccc4ccccc4c3nc2Cl)C(=O)NNC(=O)CCC(=O)NNC(=O)/C(=C/c2cc3ccc4ccccc4c3nc2Cl)CC(=O)c2ccc(C)cc2)cc1`, the 50% lethal concentration (LC50) is 136 µg/mL (≈ 144 µM). The LC50 values of the last two compounds are within 1.5-fold of each other.
On to `CCCCCCCCCCCC(=O)NN1C(=O)/C(=C/c2cc3ccc4ccccc4c3nc2Cl)C=C1c1ccc(C)cc1`, for which the LC50 worked out at 0.4 µg/mL (≈ 0.673 µM).
Take `CC(=O)N(C(C)=O)N1C(=O)/C(=C/c2cc3ccc4ccccc4c3nc2Cl)C=C1c1ccc(C)cc1`: the LC50 was determined as 329 µg/mL (≈ 663 µM).
For the compound `Cc1ccc(C(=O)C/C(=C\c2cc3ccc4ccccc4c3nc2Cl)C(=O)N/N=C/c2ccccc2O)cc1`, the LC50 was found to be 29.3 µg/mL (≈ 54.9 µM).
Compound `COc1ccc(/C=N/NC(=O)/C(=C/c2cc3ccc4ccccc4c3nc2Cl)CC(=O)c2ccc(C)cc2)cc1OC` came in with an LC50 of 202 µg/mL (≈ 349 µM).
For `Cc1ccc(C(=O)C/C(=C\c2cc3ccc4ccccc4c3nc2Cl)C(=O)NN)cc1`, the LC50 was determined as 86.4 µg/mL (≈ 201 µM). This LC50 lies about 2.3-fold lower than the previous one.
As to `CC(=O)NNC(=O)/C(=C/c1cc2ccc3ccccc3c2nc1Cl)CC(=O)c1ccc(C)cc1`, the median lethal concentration (LC50) amounted to 116 µg/mL (≈ 245 µM).
In the case of `CCOP(=S)(OCC)Oc1nc(Cl)c(Cl)cc1Cl` [CHLORPYRIFOS], the LC50 is 272 µg/mL (≈ 776 µM).
